PubChem BioAssay AID624275 (Broad Institute, 2012)
The source made the active and inactive calls. The rule behind the calls is not given here.

System: CqsS sensor histidine kinase (Vibrio cholerae)
Test: CqsS histidine kinase agonist, Vibrio cholerae WN1103 delta luxQ, luciferase luminescence, confirmatory dose (AID 624275)
Conditions: V. cholerae WN1103 delta luxQ, 6 h

| SMILES | AC40 |
| --- | --- |
| Cc1c(Cl)cccc1-n1cnc(=O)c2ccccc21 | > 35 µM (inactive) |
| O=c1ncn(-c2cccc(Cl)c2)c2ccccc12 | 0.0294 µM |
| O=C(Nc1nnc(-c2ccc3c(c2)OCCO3)o1)C1CCCCC1 | 2.07 µM |
| Cc1ccc(OCCNC(=O)c2cccc(C)c2)cc1 | 0.309 µM |
| CCOc1ccc(Nc2ccc3nonc3c2[N+](=O)[O-])cc1 | 0.596 µM |
| CCCn1nnnc1NCc1ccc(N(CC)CC)cc1 | 0.0901 µM |
| COc1ccccc1NC(=O)COC(=O)c1cc2c(s1)CCC2 | 0.184 µM |
| Cc1ccc2cc3c(NC(=O)c4ccco4)nn(C)c3nc2c1 | 4.22 µM |
| COc1ccccc1NC(=O)COC(=O)c1oc2ccccc2c1C | 2.01 µM |
| COc1ccccc1NC(=O)COC(=O)c1ccc(C)cc1 | 2.24 µM |
| CCCn1nnnc1NCc1ccc(N2CCCC2)cc1 | 0.0292 µM |
| CCn1nnnc1NCc1ccc(N2CCCC2)cc1 | 0.00571 µM |
| CCCn1nnnc1NCc1ccc(C(C)C)cc1 | 0.0288 µM |
| O=C(Cc1ccc(-c2ccccc2)cc1)NC1CCCC1 | 0.118 µM |
| CCC(C)NC(=O)Cc1ccc(-c2ccccc2)cc1 (stereo not given) | 1.92 µM |
| COc1ccc(Cl)cc1NC(=O)COC(=O)c1ccc(C)o1 | 0.489 µM |

Same assay, conditions: V. cholerae WN1103 delta luxQ, 6 h, at 35 µM (top of the series)

| SMILES | activation |
| --- | --- |
| Cc1ccc(CC(=O)NC2CCCC2)cc1 | 10.3% (inactive) |
| CCn1nnc(NCc2ccc(C)cc2)n1 | 0.153% (inactive) |
| CCCn1nnnc1NCc1ccccc1Cl | 0.419% (inactive) |
| CCn1c(CC(=O)Nc2cccc(Cl)c2Cl)nnc1SCCOc1ccc(OC)cc1 | 0.37% (inactive) |
